Measurements: ChEMBL document CHEMBL1201862, “PubChem BioAssay data set” (2004)
The source made the active and inactive calls.

Experiments:
[1] = luciferase reporter signal suppression in cells – H4 neuroglioma cells, luminescence, dose response (AID 1990); format: functional, cell-based
[2] = molecular target: T1, Heat shock factor protein 1 (Mus musculus, UniProt P38532); experiment: decrease of HSF1-responsive luciferase luminescence – cell-based, NIH3T3, dose retest, confirmation (AID 2382); format: functional;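 also: NIH3T3 fibroblasts with HSF1-driven luciferase reporter stressed by proteasome inhibitor MG132; luminescence from HSF1-driven luciferase expression after 8 hours of MG132 stress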
T1 sequence (P38532 whole entry): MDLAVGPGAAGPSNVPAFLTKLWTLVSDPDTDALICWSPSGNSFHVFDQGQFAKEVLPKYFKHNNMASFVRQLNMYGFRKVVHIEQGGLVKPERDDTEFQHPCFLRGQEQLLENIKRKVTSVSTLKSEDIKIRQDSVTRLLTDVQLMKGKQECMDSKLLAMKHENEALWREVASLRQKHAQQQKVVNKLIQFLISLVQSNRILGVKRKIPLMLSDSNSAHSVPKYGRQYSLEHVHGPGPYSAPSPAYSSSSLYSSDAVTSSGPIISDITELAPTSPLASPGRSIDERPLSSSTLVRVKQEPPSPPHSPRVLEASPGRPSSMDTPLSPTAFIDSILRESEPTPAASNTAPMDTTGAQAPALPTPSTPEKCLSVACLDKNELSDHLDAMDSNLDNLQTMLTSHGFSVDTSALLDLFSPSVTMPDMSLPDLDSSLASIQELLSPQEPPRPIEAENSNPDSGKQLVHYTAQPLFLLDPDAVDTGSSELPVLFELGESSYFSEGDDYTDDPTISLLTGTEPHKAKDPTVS

[3] = molecular target: T2, Microphthalmia-associated transcription factor (Homo sapiens, UniProt O75030); experiment: reducers of TRPM1 reporter luminescence, concentration series – cell-based, SK-MEL-5, cherry-picked, set 3, MITF inhibitor project, dose response (AID 493073); format: functional;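 also: SK-MEL-5 melanoma cells with luciferase driven by the MITF target TRPM1 promoter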
T2 sequence (O75030 whole entry): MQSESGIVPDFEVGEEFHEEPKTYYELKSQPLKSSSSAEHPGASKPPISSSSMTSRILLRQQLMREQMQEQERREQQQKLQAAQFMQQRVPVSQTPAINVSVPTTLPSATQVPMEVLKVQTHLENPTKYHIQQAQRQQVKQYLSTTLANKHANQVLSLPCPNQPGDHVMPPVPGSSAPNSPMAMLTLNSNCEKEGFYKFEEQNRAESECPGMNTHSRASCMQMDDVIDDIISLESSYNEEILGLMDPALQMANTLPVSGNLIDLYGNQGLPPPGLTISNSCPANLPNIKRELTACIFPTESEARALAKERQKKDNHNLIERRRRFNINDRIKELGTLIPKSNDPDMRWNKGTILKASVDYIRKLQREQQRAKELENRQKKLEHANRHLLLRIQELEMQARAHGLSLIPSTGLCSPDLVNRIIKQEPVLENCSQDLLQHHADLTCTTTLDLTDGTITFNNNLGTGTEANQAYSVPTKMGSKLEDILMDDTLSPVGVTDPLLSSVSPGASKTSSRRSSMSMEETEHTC

[4] = molecular target: Photoreceptor-specific nuclear receptor (Homo sapiens, UniProt Q9Y5X4); format: functional, cell-based;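 also: CHO-S cells with Gal4-NCOR and VP16-NR2E3 two-hybrid luciferase reporter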
[5] = A549 cell cytotoxicity, dose response, cytotoxicity control, plate reader, cherry-pick, antagonist series (AID 743412); format: functional, cell-based
[6] = blockers of bursicon-stimulated LGR2 cAMP reporter – cell-based, HEK293, CRE-luciferase reporter, cherry pick, set 2, dose response (AID 743343); format: functional;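 also: transfected cells were stimulated with diluted bursicon conditioned medium after compound addition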
[7] = blockade of melanocortin 4 receptor signaling – cell-based, plate reader, cherry pick, counter-screen for LGR2 antagonist project, dose response (AID 743444); format: functional;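 also: transfected HEK 293 cells stimulated with alpha-MSH peptide; potency of inhibitors of the alpha-MSH evoked signal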
[8] = M. tuberculosis H37Rv growth inhibitors, H37Rv strain (AID 1626); format: functional
[9] = molecular target: T3, Leucine aminopeptidase (Plasmodium falciparum 3D7, UniProt Q8IL11); experiment: P. falciparum M17LAP inhibitors, primary screen, biochemical, fluorogenic H-Leu-NHMec substrate, 1536-well (AID 1619); format: functional
T3 sequence (Q8IL11 whole entry): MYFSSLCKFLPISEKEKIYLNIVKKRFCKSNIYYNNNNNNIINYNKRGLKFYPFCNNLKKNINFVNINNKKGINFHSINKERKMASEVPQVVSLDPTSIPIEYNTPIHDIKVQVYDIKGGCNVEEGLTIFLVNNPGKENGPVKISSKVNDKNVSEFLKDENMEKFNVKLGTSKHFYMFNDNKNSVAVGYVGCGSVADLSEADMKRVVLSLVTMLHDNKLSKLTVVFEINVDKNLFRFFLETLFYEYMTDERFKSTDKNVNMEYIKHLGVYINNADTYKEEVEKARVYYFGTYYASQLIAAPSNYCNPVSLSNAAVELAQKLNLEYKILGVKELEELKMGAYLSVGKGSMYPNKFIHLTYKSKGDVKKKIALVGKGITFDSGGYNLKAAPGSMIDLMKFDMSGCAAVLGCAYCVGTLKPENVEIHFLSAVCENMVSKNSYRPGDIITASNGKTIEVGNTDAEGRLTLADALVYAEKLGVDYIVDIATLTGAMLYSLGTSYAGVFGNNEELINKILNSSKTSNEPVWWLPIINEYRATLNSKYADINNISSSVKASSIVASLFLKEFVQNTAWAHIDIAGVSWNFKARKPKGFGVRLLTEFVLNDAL

[10] = molecular target: NAD-dependent protein deacylase sirtuin-5, mitochondrial (Homo sapiens, UniProt Q9NXA8); experiment: sirtuin-5 deacylation blockers, concentration series – biochemical, fluorescence imaging, cherry-pick, set 5, dose response (AID 720591);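 also: desuccinylation of succinyl peptide AMC substrate read as fluorescence after trypsin release; potency of inhibitors that lower fluorescence and may act on trypsin instead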
[11] = Trypanosoma cruzi growth suppression in host cells – NIH3T3 host cells, beta-gal luminescence, confirmation (AID 2044); format: functional, cell-based;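 also: intracellular parasites grown in NIH/3T3 mouse fibroblasts as host cells; luminescent beta-galactosidase reporter signal from transgenic T. cruzi replicating inside host cells; inhibitors lower the luminescence signal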
[12] = NIH3T3 cell viability loss – ATP luminescence, mouse fibroblasts, counter-screen, dose response (AID 2010); format: functional, cell-based;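 also: cells exposed to compound for about 90 hours before reading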
[13] = molecular target: T1, Heat shock factor protein 1; experiment: enhancement of HSF1-driven luciferase signal – cell-based, NIH3T3, luminescence, dose retest, confirmation (AID 435004); format: functional;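 also: stress induced by proteasome inhibitor MG132 added 30 min after compound; luciferase reporter driven by HSF1 response element in NIH3T3 cells; actives raise luminescence as potentiators of the MG132 stress response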
[14] = toxicity toward HepG2 liver cells – cell-based, plate reader, cherry-pick, antagonist series, cytotoxicity control, dose response (AID 743416); format: functional
[15] = viability loss in HEK293 cells – cell-based, plate reader, cherry-picked samples, cytotoxicity control, dose response (AID 743446); format: functional
[16] = molecular target: T4, Replicative DNA helicase DnaB (Mycobacterium tuberculosis, UniProt P9WMR3); experiment: DnaB intein splicing inhibitors, dose response, biochemical, cell-free fluorescence (AID 449749); format: functional
T4 sequence (P9WMR3 whole entry): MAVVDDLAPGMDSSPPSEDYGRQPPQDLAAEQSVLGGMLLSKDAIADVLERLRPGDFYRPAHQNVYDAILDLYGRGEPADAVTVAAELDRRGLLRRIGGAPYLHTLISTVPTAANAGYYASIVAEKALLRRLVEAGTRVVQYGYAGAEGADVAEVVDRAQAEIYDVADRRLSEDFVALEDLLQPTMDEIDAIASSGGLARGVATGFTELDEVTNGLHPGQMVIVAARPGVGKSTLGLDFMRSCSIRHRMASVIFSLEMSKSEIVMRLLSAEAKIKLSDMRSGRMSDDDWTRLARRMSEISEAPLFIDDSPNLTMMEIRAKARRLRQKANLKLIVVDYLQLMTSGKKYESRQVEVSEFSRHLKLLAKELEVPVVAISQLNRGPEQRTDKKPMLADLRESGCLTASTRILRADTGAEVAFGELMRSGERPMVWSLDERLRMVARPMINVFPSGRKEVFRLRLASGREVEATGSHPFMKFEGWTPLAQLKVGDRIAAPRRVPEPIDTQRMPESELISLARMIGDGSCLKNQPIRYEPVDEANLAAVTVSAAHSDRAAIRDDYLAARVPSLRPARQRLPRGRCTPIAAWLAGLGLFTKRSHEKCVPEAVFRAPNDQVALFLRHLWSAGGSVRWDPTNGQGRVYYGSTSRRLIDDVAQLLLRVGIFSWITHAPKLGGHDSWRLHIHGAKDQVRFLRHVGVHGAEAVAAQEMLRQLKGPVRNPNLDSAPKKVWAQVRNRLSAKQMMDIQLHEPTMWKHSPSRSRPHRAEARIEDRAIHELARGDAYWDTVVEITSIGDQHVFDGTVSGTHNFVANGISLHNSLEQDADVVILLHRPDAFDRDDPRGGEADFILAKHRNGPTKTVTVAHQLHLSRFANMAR

[17] = molecular target: T5, Protein RecA (Mycobacterium tuberculosis, UniProt P9WHJ3); experiment: Fluorescence Cell-Free Homogeneous Dose Retest to Identify Inhibitors of RecA-Intein Splicing Activity. [Related pubchem assays (depositor defined):AID2097, AID2223, AID489010, AID492950]; format: functional
T5 sequence (P9WHJ3 whole entry): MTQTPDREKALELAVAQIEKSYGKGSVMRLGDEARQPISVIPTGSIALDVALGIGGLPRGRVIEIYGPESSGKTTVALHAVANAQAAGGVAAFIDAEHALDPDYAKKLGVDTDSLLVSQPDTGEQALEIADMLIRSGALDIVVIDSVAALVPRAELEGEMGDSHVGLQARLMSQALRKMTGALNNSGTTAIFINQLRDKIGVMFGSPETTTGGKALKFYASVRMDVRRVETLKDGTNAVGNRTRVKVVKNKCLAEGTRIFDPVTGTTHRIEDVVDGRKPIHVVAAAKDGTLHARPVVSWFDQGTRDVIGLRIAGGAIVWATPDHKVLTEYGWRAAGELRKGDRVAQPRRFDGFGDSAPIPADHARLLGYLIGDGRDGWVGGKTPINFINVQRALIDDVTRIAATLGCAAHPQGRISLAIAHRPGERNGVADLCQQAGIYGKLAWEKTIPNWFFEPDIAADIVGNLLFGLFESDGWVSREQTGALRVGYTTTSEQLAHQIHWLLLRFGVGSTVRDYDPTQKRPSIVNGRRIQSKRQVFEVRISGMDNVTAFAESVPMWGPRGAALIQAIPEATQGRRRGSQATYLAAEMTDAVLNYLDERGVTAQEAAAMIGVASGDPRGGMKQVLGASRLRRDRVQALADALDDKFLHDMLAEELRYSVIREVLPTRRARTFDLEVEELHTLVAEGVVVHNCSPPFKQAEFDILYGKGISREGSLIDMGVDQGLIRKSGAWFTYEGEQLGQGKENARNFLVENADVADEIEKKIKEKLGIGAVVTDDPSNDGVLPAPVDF

[18] = viability of uninfected HEp-2 cells – cell-based, HTS, cytotoxicity control for RSV inhibitor project, dose response (AID 2410); format: functional; details: human respiratory syncytial virus
[19] = viability of PTEN-deleted HCT116 cells – cell-based, HCT116 PTEN knockout, dose response (AID 1047); format: functional;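 also: HCT116 colon tumor cells with PTEN knocked out; cells exposed to compound for 60 hours before readout; potency for loss of cell viability measured by luminescence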
[20] = viability of HCT116 lacking mutant beta-catenin – cell-based, human colon tumor, dose response (AID 1045); format: functional;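 also: HCT116 colon tumor cells with beta catenin knocked out; cells exposed to compound for 60 hours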
[21] = molecular target: Induced myeloid leukemia cell differentiation protein Mcl-1 (Homo sapiens, UniProt Q07820); format: functional
[22] = potency of ADAM10 substrate cleavage blockers – biochemical, QFRET, dose response (AID 743254);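 also: ADAM10 enzyme with the DM2 quenched FRET peptide as substrate; EDANS fluorescence gain as the protease cuts the substrate; inhibitor potency against ADAM10 proteolytic activity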
[23] = molecular target: Disintegrin and metalloproteinase domain-containing protein 17 (Homo sapiens, UniProt P78536); experiment: inhibition of ADAM17 substrate cleavage – biochemical, quenched FRET substrate, counter-screen for ADAM10 exosite inhibitor project, dose response (AID 743253)
[24] = Luminescence Cell-Based Dose Retest to Confirm Inhibitors of Cancer Stem Cells. [Related pubchem assays (depositor defined):AID2717, AID2721]; format: functional; details: Homo sapiens

NAD-dependent protein deacylase sirtuin-5, mitochondrial, sequence (Q9NXA8 whole entry): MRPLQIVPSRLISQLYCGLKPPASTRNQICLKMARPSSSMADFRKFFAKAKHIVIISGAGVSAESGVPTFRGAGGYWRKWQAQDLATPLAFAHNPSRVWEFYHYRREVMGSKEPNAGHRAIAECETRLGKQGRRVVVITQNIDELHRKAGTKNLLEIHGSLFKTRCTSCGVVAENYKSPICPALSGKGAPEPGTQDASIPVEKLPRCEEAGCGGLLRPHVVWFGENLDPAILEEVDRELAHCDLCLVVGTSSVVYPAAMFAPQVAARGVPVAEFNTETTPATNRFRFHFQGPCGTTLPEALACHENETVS
Disintegrin and metalloproteinase domain-containing protein 17, sequence (P78536 whole entry, the tested form may be a part): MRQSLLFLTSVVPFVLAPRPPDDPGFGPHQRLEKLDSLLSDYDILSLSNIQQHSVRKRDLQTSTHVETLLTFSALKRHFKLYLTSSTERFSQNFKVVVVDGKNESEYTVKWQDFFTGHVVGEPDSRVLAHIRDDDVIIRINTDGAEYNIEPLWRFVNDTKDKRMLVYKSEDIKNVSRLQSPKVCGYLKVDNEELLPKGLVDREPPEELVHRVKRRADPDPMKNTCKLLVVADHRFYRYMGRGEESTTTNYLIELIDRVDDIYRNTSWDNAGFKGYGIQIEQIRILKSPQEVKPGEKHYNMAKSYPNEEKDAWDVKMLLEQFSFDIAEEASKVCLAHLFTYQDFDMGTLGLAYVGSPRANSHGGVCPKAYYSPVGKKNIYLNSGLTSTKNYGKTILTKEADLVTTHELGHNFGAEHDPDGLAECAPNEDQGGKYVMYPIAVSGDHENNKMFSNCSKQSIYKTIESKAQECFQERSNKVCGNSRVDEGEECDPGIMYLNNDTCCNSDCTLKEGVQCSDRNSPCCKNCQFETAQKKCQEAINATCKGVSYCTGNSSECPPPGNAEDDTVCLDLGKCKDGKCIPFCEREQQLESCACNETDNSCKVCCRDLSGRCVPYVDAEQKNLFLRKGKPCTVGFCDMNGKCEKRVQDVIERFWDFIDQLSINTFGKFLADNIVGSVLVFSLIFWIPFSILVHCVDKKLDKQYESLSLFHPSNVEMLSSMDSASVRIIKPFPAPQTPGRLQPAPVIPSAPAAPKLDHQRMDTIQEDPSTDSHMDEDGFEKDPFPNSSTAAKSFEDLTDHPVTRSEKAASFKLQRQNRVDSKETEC
Photoreceptor-specific nuclear receptor, sequence (Q9Y5X4 whole entry, the tested form may be a part): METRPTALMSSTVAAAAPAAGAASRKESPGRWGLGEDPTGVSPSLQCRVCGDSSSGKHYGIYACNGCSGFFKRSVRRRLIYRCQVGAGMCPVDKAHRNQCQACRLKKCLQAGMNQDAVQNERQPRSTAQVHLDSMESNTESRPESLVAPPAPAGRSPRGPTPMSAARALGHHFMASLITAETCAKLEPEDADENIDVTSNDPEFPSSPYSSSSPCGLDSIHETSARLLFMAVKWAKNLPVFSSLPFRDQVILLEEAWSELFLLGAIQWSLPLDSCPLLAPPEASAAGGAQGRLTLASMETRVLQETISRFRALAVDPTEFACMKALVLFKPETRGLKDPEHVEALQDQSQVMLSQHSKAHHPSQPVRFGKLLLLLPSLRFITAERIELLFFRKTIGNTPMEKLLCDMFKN
Induced myeloid leukemia cell differentiation protein Mcl-1, sequence (Q07820 whole entry): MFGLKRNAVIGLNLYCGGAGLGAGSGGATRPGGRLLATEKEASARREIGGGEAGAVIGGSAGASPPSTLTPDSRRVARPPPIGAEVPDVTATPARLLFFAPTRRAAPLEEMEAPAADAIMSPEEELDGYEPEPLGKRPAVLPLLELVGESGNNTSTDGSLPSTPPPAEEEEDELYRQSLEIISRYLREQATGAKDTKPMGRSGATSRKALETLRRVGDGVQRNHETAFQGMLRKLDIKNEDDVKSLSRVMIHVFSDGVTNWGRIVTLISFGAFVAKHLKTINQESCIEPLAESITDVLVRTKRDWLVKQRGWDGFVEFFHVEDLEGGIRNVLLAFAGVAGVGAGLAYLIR

Cc1cc(C(=O)CSc2nnc3ccccn23)c(C)n1-c1ccccc1
EC50 [1]: 0.844 µM (active)
EC50 [2]: < 0.16 µM (active)
AC50 [3]: 2.08 µM (active)
IC50 [4]: 14.4 µM (inactive)
AC50 [5]: > 52 µM (inactive)
AC50 [6]: 1.06 µM (active)
AC50 [7]: 1.39 µM (active)

CCc1ccc(NC(=O)CSc2nnc(-c3ccccn3)n2C)cc1
IC50 [8]: > 100 µM (active)

CCOC(=O)c1ccc(NC(=O)C2C3CCC(C3)C2C(=O)O)cc1 (stereo unspecified)
IC50 [9]: 20 µM (active)
IC50 [8]: > 100 µM (active)

CNC(=O)CSc1nnc(-c2ccco2)n1-c1cccc(C)c1
AC50 [10]: > 30 µM (inactive)

CCOC(=O)c1cc(-c2cc(OC)c(OC)c(OC)c2)nc2c1c(=O)[nH]c(=O)n2Cc1ccccc1
AC50 [10]: > 30 µM (inactive)

O=S(=O)(CC(CN1CCCCC1)N1CCCCC1)c1ccc2ccccc2c1 (stereo unspecified)
EC50 [11]: 2.65 µM (active)
EC50 [12]: > 60 µM (not active)
EC50 [13]: 13.9 µM (active)
AC50 [3]: 12.5 µM (active)
AC50 [5]: 11.6 µM (active)
AC50 [14]: 14.6 µM (active)
AC50 [6]: 22.3 µM (active)
AC50 [7]: 14 µM (active)
AC50 [15]: 18.8 µM (active)

N#CC1=C(N)Oc2[nH]nc(-c3ccc(F)cc3)c2C1c1ccncc1 (stereo unspecified)
IC50 [9]: 94.3 µM (active)
AC50 [16]: 7.34 µM (active)
EC50 [17]: 5.79 µM (active)

COc1ccc(/C=C/C(=O)c2ccc(C)c([N+](=O)[O-])c2)cc1O
CC50 [18]: 15.8 µM (active)
IC50 [8]: > 100 µM (active)
EC50 [19]: 5.39 µM (active)
EC50 [20]: 4.65 µM (active)

O=C(c1ccc(CSc2nc3cc[nH]cc-3n2)cc1)N1CCN(c2cccc(Cl)c2)CC1
EC50 [11]: 1.39 µM (active)
EC50 [12]: > 60 µM (not active)
AC50 [5]: 38 µM (active)
AC50 [14]: 32.6 µM (active)
AC50 [15]: 50.4 µM (active)

COc1cc(C(=O)Nc2ccc3c(c2)C(=O)c2ccccc2C3=O)cc(OC)c1OC
IC50 [21]: 2.77 µM (active)

CCCN(CC1CC1)C(=O)COC(=O)c1ccc2c(c1)C(=O)N(c1ccc(OCC)cc1)C2=O
IC50 [8]: > 100 µM (active)

COc1ccc(-n2c(SCC(=O)Nc3ccc(C(=O)O)cc3)nnc2-c2cccs2)cc1
IC50 [9]: 14.5 µM (active)

COc1ccc(CCCNC(=O)C2CCC(=O)N(Cc3ccc(Cl)cc3)C2)cc1 (stereo unspecified)
AC50 [10]: > 30 µM (inactive)

Oc1ccc(C[C@H]2CNC(=S)N2C[C@H]2CCCN2C[C@H](Cc2ccccc2)N2C[C@H](Cc3ccc(O)cc3)N(CCc3ccccc3)C2=S)cc1
IC50 [22]: 15.1 µM (inactive)
IC50 [23]: > 69.5 µM (inactive)

CC(=O)N1c2ccc(S(=O)(=O)NCCC(=O)NC3CCC(C)CC3)cc2CC1C (stereo unspecified)
AC50 [10]: > 30 µM (inactive)

CC(O)(c1ccccc1)c1nc(-c2cc3ccccc3o2)cs1 (stereo unspecified)
IC50 [22]: 17.2 µM (inactive)
IC50 [23]: > 69.5 µM (inactive)

Cc1ccccc1/N=C1\SC(CC(=O)Nc2ccc3ccccc3c2)C(=O)N1Cc1ccccn1 (stereo unspecified)
AC50 [24]: 4.16 µM (active)
EC50 [13]: > 120 µM (inactive)
IC50 [22]: 12.5 µM (inactive)
IC50 [23]: > 69.5 µM (inactive)
